Experimental data published in patent publication US12378249B2, “Isoquinoline compounds and uses thereof” (Genentech, Inc., priority 2018, dated 2025).

These molecules were tested against HPK1 (Homo sapiens (Human), UniProt Q92918, S171E/T165E) (assay: HPK1-FL HTRF Enzymatic Assay (HTRF)). Details: HPK full length T165E S171E 0.125 nM, ATP 1 mM, Biotin-SLP76 100 nM, read-out: HPK1 Ki (nM), H = HTRF.
Chain of HPK1 (Q92918 whole entry T165E/S171E): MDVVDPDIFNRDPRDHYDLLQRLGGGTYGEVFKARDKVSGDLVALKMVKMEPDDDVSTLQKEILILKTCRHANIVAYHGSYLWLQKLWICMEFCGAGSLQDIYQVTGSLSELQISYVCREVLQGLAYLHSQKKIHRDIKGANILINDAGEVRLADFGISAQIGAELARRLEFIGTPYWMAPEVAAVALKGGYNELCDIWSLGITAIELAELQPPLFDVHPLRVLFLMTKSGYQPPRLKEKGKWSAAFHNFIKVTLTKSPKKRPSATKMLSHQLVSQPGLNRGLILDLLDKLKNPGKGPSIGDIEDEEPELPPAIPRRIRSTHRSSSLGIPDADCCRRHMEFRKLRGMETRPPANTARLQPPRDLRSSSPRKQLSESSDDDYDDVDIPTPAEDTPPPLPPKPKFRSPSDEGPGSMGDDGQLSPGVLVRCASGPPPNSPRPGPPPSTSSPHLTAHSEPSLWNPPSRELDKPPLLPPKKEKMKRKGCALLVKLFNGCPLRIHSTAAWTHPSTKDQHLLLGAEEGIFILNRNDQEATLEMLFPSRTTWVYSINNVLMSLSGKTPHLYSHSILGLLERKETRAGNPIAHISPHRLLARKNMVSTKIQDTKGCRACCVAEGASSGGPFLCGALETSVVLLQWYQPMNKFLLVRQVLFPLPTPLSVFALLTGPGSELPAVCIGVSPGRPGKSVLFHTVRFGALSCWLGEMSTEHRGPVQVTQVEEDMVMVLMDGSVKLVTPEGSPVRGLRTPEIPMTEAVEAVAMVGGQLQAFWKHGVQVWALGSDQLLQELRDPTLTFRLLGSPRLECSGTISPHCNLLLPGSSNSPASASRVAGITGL
Type: biochemical
Procedure: Exemplary compounds of Formula (I) were tested to assess compound inhibition of HPK-1. The Ki for each exemplary compound was determined
Example B1: HPK1-FL HTRF Enzymatic Assay (“HTRF”)
HPK-FL enzyme phosphorylates Biotin-SLP-76 substrate in the presence of ATP at 1 mM and varying concentrations of test compound. Product is detected by FRET using Eu-anti-pSLP76 Ab and SA-XL665. Also see www.cisbio.com/HTRF for additional HTRF technology information.
• Echo555 compound dispenser • Agilent Bravo • Perkin Elmer Envision Final Assay Conditions:
Materials: • Assay plate: White ProxiPlate 384 F (PerkinElmer cat #6008289) • Kinase: HPK full length double mutant • Substrate: Biotin-SLP76 • ATP: 100 mM ATP • BSG: 2% BSG • DMSO: DMSO (Sigma cat #34869-100ML) • Reaction Buffer: H2O/50 mM HEPES, pH 7.5/10 mM MgCl2/2 mM TCEP/0.01% Brij-35/0.01% BSG • Detection mix:Eu-anti-pSLP76/SA-XL665 (Cisbio, #610SAXAC) Assay Procedure Ki determination:
To a 384 well Proxiplate with 80 nL compound or DMSO spotted on was added 4 μl/well kinase mix. The mixture was preincubated for 30 minutes and then 4 μl/well substrate mix was added. The solution was incubated for 60 min and then 4 μl/well detection mix was added. The solution was incubated for another 60 min. The plates were then loaded onto a Perkin Elmer Envision and the TR-FRET signal was measured at 615 and 665 nm. A ratio of […] was used to calculate the % activity at each concentration of compound.
`Cc1ccncc1-c1cc2cc(Nc3cc4n(n3)CC3=NOC(C)(C)N3CC4)ncc2cc1F` [Compound 134, N-(7-fluoro-6-(4-methylpyridin-3-yl)isoquinolin-3-yl)-3,3-dimethyl-5,6-dihydro-3H,11H-[1,2,4]oxadiazolo[4,3-a]pyrazolo[1,5-d][1,4]diazepin-8-amine] showed a Ki of 3.4 nM.
In the case of `Cc1c(-c2cc3cc(Nc4cc5n(n4)CC(=O)NCC5)ncc3cc2F)cnc2c1NCC(F)(F)O2` [Compound 176, 2-((6-(3,3-difluoro-8-methyl-2,3-dihydro-1H-pyrido[2,3-b][1,4]oxazin-7-yl)-7-fluoroisoquinolin-3-yl)amino)-5,6-dihydro-4H-pyrazolo[1,5-d][1,4]diazepin-7(8H)-one], the Ki is reported as 0.161 nM.
`Cc1c(-c2cc(F)c3cnc(Nc4cc5n(n4)CC(=O)N(C)CC54CC4)cc3c2)cnc2c1NCC[C@@H]2O` (single isomer, unassigned) [Compound 237a] gave a Ki of 0.332 nM.
For `CN1CCc2cc(Nc3cc4cc(-c5cccc6c5CNC6)c(F)cc4cn3)nn2CC1=O` [Compound 215, 2-((7-fluoro-6-(isoindolin-4-yl)isoquinolin-3-yl)amino)-6-methyl-5,6-dihydro-4H-pyrazolo[1,5-d][1,4]diazepin-7(8H)-one], the Ki was 364 nM.
`CN[C@H]1CCc2c(-c3cc4cc(Nc5cc6n(n5)CC(=O)N(C)CC6)ncc4cc3F)cncc21` (single isomer, unassigned) [Compound 228b] was tested, and the Ki was 446 nM.
With `Cc1c(N)cncc1-c1cc2cc(Nc3cc4n(n3)Cc3nccn3CC4)ncc2c(F)c1F` [Compound 157, N-(6-(5-amino-4-methylpyridin-3-yl)-7,8-difluoroisoquinolin-3-yl)-5,6-dihydro-11H-imidazo[1,2-a]pyrazolo[1,5-d][1,4]diazepin-8-amine] the Ki was 0.014 nM.
`Cc1c(-c2cc3cc(Nc4cc5n(n4)CC(=O)NCC5)ncc3cc2F)cnc2c1NCC(C)O2` (racemic) [Compound 184, (+/−)-2-((6-(3,8-dimethyl-2,3-dihydro-1H-pyrido[2,3-b][1,4]oxazin-7-yl)-7-fluoroisoquinolin-3-yl)amino)-5,6-dihydro-4H-pyrazolo[1,5-d][1,4]diazepin-7(8H)-one] showed a Ki of 0.018 nM.
With `Cc1c(N)cncc1-c1cc2cc(Nc3cc4n(n3)CC(=O)N(C)C(C)(C)C4)ncc2cc1F` [Compound 120, 2-((6-(5-amino-4-methylpyridin-3-yl)-7-fluoroisoquinolin-3-yl)amino)-5,5,6-trimethyl-5,6-dihydro-4H-pyrazolo[1,5-d][1,4]diazepin-7(8H)-one] the Ki was 0.04 nM.
In the case of `Cc1c(-c2cc3cc(Nc4cc5n(n4)CC(=O)N(C(C)C)CC5)ncc3c(F)c2F)cnc2c1NCCO2` [Compound 135, 2-((7,8-difluoro-6-(8-methyl-2,3-dihydro-1H-pyrido[2,3-b][1,4]oxazin-7-yl)isoquinolin-3-yl)amino)-6-isopropyl-5,6-dihydro-4H-pyrazolo[1,5-d][1,4]diazepin-7(8H)-one], the Ki is reported as 0.038 nM.
For `CC(=O)Nc1cncc(-c2cc3cc(Nc4cc5n(n4)CC(=O)N(C)CC5)ncc3cc2F)c1C` [Compound 171, N-(5-(7-fluoro-3-((6-methyl-7-oxo-5,6,7,8-tetrahydro-4H-pyrazolo[1,5-d][1,4]diazepin-2-yl)amino)isoquinolin-6-yl)-4-methylpyridin-3-yl)acetamide], the Ki was 1.78 nM.
`Cc1c(-c2c(F)cc3cnc(Nc4cc5n(n4)CC(=O)N(C)CC5)cc3c2F)cnc2c1NCCO2` [Compound 223, 2-((5,7-difluoro-6-(8-methyl-2,3-dihydro-1H-pyrido[2,3-b][1,4]oxazin-7-yl)isoquinolin-3-yl)amino)-6-methyl-5,6-dihydro-4H-pyrazolo[1,5-d][1,4]diazepin-7(8H)-one] gave a Ki of 0.04 nM.
With `Cc1c(N)cncc1-c1cc2cc(Nc3cc4n(n3)CC(=O)N(C)CC4(F)F)ncc2cc1F` [Compound 127, 2-[[6-(5-amino-4-methyl-3-pyridyl)-7-fluoro-3-isoquinolyl]amino]-4,4-difluoro-6-methyl-5,8-dihydropyrazolo[1,5-d][1,4]diazepin-7-one] the Ki was 0.04 nM.
`Cc1c(N)cncc1-c1cc2cc(Nc3cc4n(n3)Cc3ncc(C)n3CC4)ncc2cc1F` [Compound 163, N-(6-(5-amino-4-methylpyridin-3-yl)-7-fluoroisoquinolin-3-yl)-3-methyl-5,6-dihydro-11H-imidazo[1,2-a]pyrazolo[1,5-d][1,4]diazepin-8-amine] gave a Ki of 0.013 nM.
`Cc1c(-c2cc3cc(Nc4cc5n(n4)CC(=O)N(C)CC5)ncc3cc2F)cnc2cn[nH]c12` [Compound 186, 2-((7-fluoro-6-(7-methyl-1H-pyrazolo[4,3-b]pyridin-6-yl)isoquinolin-3-yl)amino)-6-methyl-5,6-dihydro-4H-pyrazolo[1,5-d][1,4]diazepin-7(8H)-one] was tested, and the Ki was 0.12 nM.
For `Cc1c(CN)cncc1-c1cc2cc(Nc3cc4n(n3)CC(=O)N(C)CC4)ncc2cc1F` [Compound 211, 2-((6-(5-(aminomethyl)-4-methylpyridin-3-yl)-7-fluoroisoquinolin-3-yl)amino)-6-methyl-5,6-dihydro-4H-pyrazolo[1,5-d][1,4]diazepin-7(8H)-one], the Ki was 19 nM.
`CN1CCc2cc(Nc3cc4cc(-c5cncc6c5CCC6O)c(F)cc4cn3)nn2CC1=O` (racemic) [Compound 214, (+/-)-2-((7-fluoro-6-(7-hydroxy-6,7-dihydro-5H-cyclopenta[c]pyridin-4-yl)isoquinolin-3-yl)amino)-6-methyl-5,6-dihydro-4H-pyrazolo[1,5-d][1,4]diazepin-7(8H)-one] showed a Ki of 9 nM.
In the case of `Cc1c(-c2cc3cc(Nc4cc5n(n4)CC(=O)NCC5)ncc3cc2F)cnc2c1NCCO2` [Compound 160, 2-((7-fluoro-6-(8-methyl-2,3-dihydro-1H-pyrido[2,3-b][1,4]oxazin-7-yl)isoquinolin-3-yl)amino)-5,6-dihydro-4H-pyrazolo[1,5-d][1,4]diazepin-7(8H)-one], the Ki is reported as 0.013 nM.
In the case of `Cc1c(-c2ccc3cnc(Nc4cc5n(n4)CC(=O)N(C)CC5)cc3c2F)cnc2c1NCCO2` [Compound 174, 2-((5-fluoro-6-(8-methyl-2,3-dihydro-1H-pyrido[2,3-b][1,4]oxazin-7-yl)isoquinolin-3-yl)amino)-6-methyl-5,6-dihydro-4H-pyrazolo[1,5-d][1,4]diazepin-7(8H)-one], the Ki is reported as 0.026 nM.
`Cc1c(N)cncc1-c1cc2cc(Nc3cc4n(n3)C[S+]([O-])CC4)ncc2cc1F` (racemic) [Compound 191, (+/-)-2-((6-(5-amino-4-methylpyridin-3-yl)-7-fluoroisoquinolin-3-yl)amino)-4,5-dihydro-7H-pyrazolo[1,5-c][1,3]thiazine 6-oxide] was tested, and the Ki was 2.6 nM.
`Cc1ncc(-c2cc3cc(Nc4cc5n(n4)CC(=O)N(C(C)C)CC5)ncc3c(O)c2F)c(C)c1N` [Compound 133, 2-((6-(5-amino-4,6-dimethylpyridin-3-yl)-7-fluoro-8-hydroxyisoquinolin-3-yl)amino)-6-isopropyl-5,6-dihydro-4H-pyrazolo[1,5-d][1,4]diazepin-7(8H)-one] gave a Ki of 3.7 nM.
For `Cc1c(-c2cc3cc(Nc4cc5n(n4)CC(=O)N(C(C)C)CC5)ncc3cc2F)cnc2c1NC(=O)CO2` [Compound 123, 7-[7-fluoro-3-[(6-isopropyl-7-oxo-5,8-dihydro-4H-pyrazolo[1,5-d][1,4]diazepin-2-yl)amino]-6-isoquinolyl]-8-methyl-1H-pyrido[2,3-b][1,4]oxazin-2-one], the Ki was 0.11 nM.
